Key:
[1] = Compound cytotoxicity, XTT-based colorimetric assay; type: cell-based; conditions: human, uninfected MT2 cells
Protocol: Compound cytotoxicity and the corresponding CC50 values were determined using the same protocol as described in the antiviral assay except that uninfected cells were used. Cytotoxicity was assessed on day 4 in uninfected MT2 cells by using a XTT (2,3-bis[2-Methoxy-4-nitro-5-sulfophenyl]-2H-tetrazolium-5-carboxyanilide inner salt)-based colorimetric assay (Sigma-Aldrich, St Louis, Mo.). Biological data for select compounds of the invention are contained in Table 1 and Table 1a

[2] = test system: recombinant NL4-3 virus (nef section replaced with Renilla luciferase gene) in MT-2 cells; experiment: HIV cell culture assay (antiviral activity, luciferase readout); type: cell-based; conditions: MT-2 cells infected for 4-5 days with recombinant NL4-3 luciferase virus
Protocol: HIV cell culture assay—MT-2 cells, 293T cells and the proviral DNA clone of NL4-3 virus were obtained from the NIH AIDS Research and Reference Reagent Program. MT-2 cells were propagated in RPMI 1640 media supplemented with 10% heat inactivated fetal bovine serum (FBS), 100 μg/ml penicillin G and up to 100 units/mL streptomycin. The 293T cells were propagated in DMEM media supplemented with 10% heat inactivated FBS, 100 μg/mL penicillin G and 100 μg/mL streptomycin. A recombinant NL4-3 proviral clone, in which a section of the nef gene was replaced with the Renilla luciferase gene, was used to make the reference virus used in these studies. The recombinant virus was prepared through transfection of the recombinant NL4-3 proviral clone into 293T cells using Transit-293 Transfection Reagent from Mirus Bio LLC (Madison, Wis.). Supernatent was harvested after 2-3 days and the amount of virus present was titered in MT-2 cells using luciferase enzyme activity as a marker by measuring luciferase enzyme activity. Luciferase was quantitated using the EnduRen Live Cell Substrate from Promega (Madison, Wis.). Antiviral activities of compounds toward the recombinant virus were quantified by measuring luciferase activity in MT-2 cells infected for 4-5 days with the recombinant virus in the presence of serial dilutions of the compound.
The 50% effective concentration (ECs) was calculated by using the exponential form of the median effect equation where (Fa)=1/[1+(ED50/drug conc.)^m] (Johnson Va., Byington RT. Infectivity Assay. In Techniques in HIV Research. ed. Aldovini A, Walker BD. 71-76. New York: Stockton Press. 1990).

| SMILES | CC50 at 4 days ([1]; Table 1a, day 4, XTT) [nM] | EC50 ([2]; Renilla, NL43, Table 1a) [nM] | EC50 ([2]; Table 1a) [nM] | CC50 at 4 days ([1]; Table 1, day 4, XTT) [nM] | EC50 ([2]; Renilla, NL43, Table 1) [nM] |
| --- | --- | --- | --- | --- | --- |
| COc1ccc2c(=O)n(-c3ccc(Cl)c4c(NS(C)(=O)=O)nn(C)c34)c([C@H](Cc3cc(F)cc(F)c3)NC(=O)Cn3ccc(C4CC4)n3)nc2c1 (single isomer, unassigned) [Example 78] | > 1000 | 0.478 | – | – | – |
| Cn1nc(NS(C)(=O)=O)c2c(Cl)ccc(-n3c([C@H](Cc4cc(F)cc(F)c4)NC(=O)Cn4nc(C(F)F)c5c4C(F)(F)[C@@H]4C[C@H]54)nc4cccc(C(F)(F)F)c4c3=O)c21 (single isomer, unassigned) [Example 127] | > 1000 | – | 379 | – | – |
| Cn1nc(NS(C)(=O)=O)c2c(Cl)ccc(-n3c([C@H](Cc4cc(F)cc(F)c4)NC(=O)Cn4nc(C(F)F)c5c4C(F)(F)[C@@H]4C[C@H]54)nc4c(C(N)=O)cccc4c3=O)c21 (single isomer, unassigned) [Example 106] | > 1000 | 23.8 | – | – | – |
| O=C(Cn1nc(C(F)F)c2c1C(F)(F)[C@@H]1C[C@H]21)N[C@@H](Cc1cc(F)cc(F)c1)c1nc2cn[nH]c2cc1-c1ccc(F)c(C(=O)NS(=O)(=O)C2CC2)c1 [Example 10.28, N-(cyclopropylsulfonyl)-5-(5-((S)-1-(2-((3bS,4aR)-3-(difluoromethyl)-5,5-difluoro-3b,4,4a,5-tetrahydro-1H-cyclopropa[3,4]cyclopenta[1,2-c]pyrazol-1-yl)acetamido)-2-(3,5-difluorophenyl)ethyl)-1H-pyrazolo[4,3-b]pyridin-6-yl)-2-fluorobenzamide] | – | – | – | > 10000 | 510 |
| CC(C)(C)c1ccc2c(=O)n(-c3ccc(Cl)c4c(NS(=O)(=O)C5CC5)nn(CC(F)F)c34)c([C@H](Cc3cc(F)cc(F)c3)NC(=O)Cn3nc(C(F)F)c4c3C(F)(F)[C@@H]3C[C@H]43)nc2c1 [Example 218, N—((S)-1-(7-(tert-Butyl)-3-(4-chloro-3-(cyclopropanesulfonamido)-1-(2,2-difluoroethyl)-1H-indazol-7-yl)-4-oxo-3,4-dihydroquinazolin-2-yl)-2-(3,5-difluorophenyl)ethyl)-2-((3bS,4aR)-3-(difluoromethyl)-5,5-difluoro-3b,4,4a,5-tetrahydro-1H-cyclopropa[3,4]cyclopenta[1,2-c]pyrazol-1-yl)acetamide] | > 1000 | 0.73 | – | – | – |
| O=C(Cn1nc(C(F)F)c2c1C(F)(F)[C@@H]1C[C@H]21)N[C@@H](Cc1cc(F)cc(F)c1)c1nc2cn[nH]c2cc1-c1ccc(Cl)c(C(=O)NS(=O)(=O)C2CCCC2)c1 [Example 10.21, 2-Chloro-N-(cyclopentylsulfonyl)-5-(5-((S)-1-(2-((3bS,4aR)-3-(difluoromethyl)-5,5-difluoro-3b,4,4a,5-tetrahydro-1H-cyclopropa[3,4]cyclopenta[1,2-c]pyrazol-1-yl)acetamido)-2-(3,5-difluorophenyl)ethyl)-1H-pyrazolo[4,3-b]pyridin-6-yl)benzamide] | – | – | – | > 10000 | 240 |
| Cc1c(F)ccc2c(=O)n(-c3ccc(Cl)c4c(NS(C)(=O)=O)nn(C)c34)c([C@H](Cc3cc(F)cc(F)c3)NC(=O)Cn3nc(C(F)F)c4c3C(F)(F)[C@@H]3C[C@H]43)nc12 (single isomer, unassigned) [Example 107] | > 1000 | – | 27.3 | – | – |
| Cn1nc(NS(C)(=O)=O)c2c(Cl)ccc(-n3c([C@H](Cc4cc(F)cc(F)c4)NC(=O)Cn4nc(C(F)F)c5c4C(F)(F)[C@@H]4C[C@H]54)nc4c(F)ccc(F)c4c3=O)c21 (single isomer, unassigned) [Example 147] | > 1000 | – | 27.9 | – | – |
| CC(C)c1ccc(-n2c([C@H](Cc3cc(F)cc(F)c3)NC(=O)Cn3nc(C(F)F)c4c3C(F)(F)[C@@H]3C[C@H]43)nc3cc(C#N)ccc3c2=O)cn1 [Example 163, N—((S)-1-(7-cyano-3-(6-isopropylpyridin-3-yl)-4-oxo-3,4-dihydroquinazolin-2-yl)-2-(3,5-difluorophenyl)ethyl)-2-((3bS,4aR)-3-(difluoromethyl)-5,5-difluoro-3b,4,4a,5-tetrahydro-1H-cyclopropa[3,4]cyclopenta[1,2-c]pyrazol-1-yl)acetamide] | 3980 | 11.9 | – | – | – |
| Cn1nc(NS(C)(=O)=O)c2c(Cl)ccc(-n3c([C@H](Cc4cc(F)cc(F)c4)NC(=O)Cn4nc(C(F)F)c5c4C(F)(F)[C@@H]4C[C@H]54)nc4c(F)cccc4c3=O)c21 (single isomer, unassigned) [Example 71] | > 1000 | 9.58 | – | – | – |
| Cn1nc(NS(C)(=O)=O)c2c(Cl)ccc(-n3c([C@H](Cc4cc(F)cc(F)c4)NC(=O)Cn4nc(C(F)F)c5c4C(F)(F)[C@@H]4C[C@H]54)nc4cccc(Cl)c4c3=O)c21 (single isomer, unassigned) [Example 22.2] | – | – | – | > 1000 | 130 |
| Cn1nc(NS(C)(=O)=O)c2c(Cl)ccc(-n3c(C(Cc4cc(F)cc(F)c4)NC(=O)Cn4nc(C(F)F)c5c4C(F)(F)[C@@H]4C[C@H]54)nc4cccc(Cl)c4c3=O)c21 (mixture of isomers) [Example 22.1, N—((S)-1-(5-chloro-3-(4-chloro-1-methyl-3-(methylsulfonamido)-1H-indazol-7-yl)-4-oxo-3,4-dihydroquinazolin-2-yl)-2-(3,5-difluorophenyl)ethyl)-2-((3bS,4aR)-3-(difluoromethyl)-5,5-difluoro-3b,4,4a,5-tetrahydro-1H-cyclopropa[3,4]cyclopenta[1,2-c]pyrazol-1-yl)acetamide] | – | – | – | > 1000 | 31600 |
| COc1c(F)cc2c(=O)n(-c3ccc(Cl)c4c(NS(C)(=O)=O)nn(C)c34)c(C(Cc3cc(F)cc(F)c3)NC(=O)Cn3nc(C(F)F)c4c3C(F)(F)[C@@H]3C[C@H]43)nc2c1F (stereo partly drawn) [Example 113] | > 1000 | 8.43 | – | – | – |
| O=C(Cn1nc(C(F)F)c2c1C(F)(F)[C@@H]1C[C@H]21)N[C@@H](Cc1cc(F)cc(F)c1)c1nc2cc[nH]c2cc1-c1ccc(S(=O)(=O)N2CCOCC2)cc1 [Example 65, 2-((3bS,4aR)-3-(difluoromethyl)-5,5-difluoro-3b,4,4a,5-tetrahydro-1H-cyclopropa[3,4]cyclopenta[1,2-c]pyrazol-1-yl)-N—((S)-2-(3,5-difluorophenyl)-1-(6-(4-(morpholinosulfonyl)phenyl)-1H-pyrrolo[3,2-b]pyridin-5-yl)ethyl)acetamide] | 2000 | 2.03 | – | – | – |
| Cn1nc(NS(C)(=O)=O)c2c(Cl)ccc(-c3cc4[nH]cc(Cl)c4nc3[C@H](Cc3cc(F)cc(F)c3)NC(=O)Cn3nc(C(F)F)c4c3C(F)(F)[C@@H]3C[C@H]43)c21 (single isomer, unassigned) [Example 89] | > 10000 | 0.66 | – | – | – |
| COc1ccc2c(=O)n(-c3ccc(Cl)c4c(NS(=O)(=O)C5CC5)nn(CC(F)F)c34)c([C@H](Cc3cc(F)cc(F)c3)NC(=O)Cn3ccc(C4CC4)n3)nc2n1 (single isomer, unassigned) [Example 57.2] | > 1000 | 0.33 | – | – | – |
| Cn1nc(NS(C)(=O)=O)c2c(Cl)ccc(-n3c([C@H](Cc4cc(F)cc(F)c4)NC(=O)Cn4ccc(C5CC5)n4)nc4cc(C(F)(F)F)ccc4c3=O)c21 (single isomer, unassigned) [Example 150] | > 1000 | – | – | – | – |
| COc1cc(F)c2c(=O)n(-c3ccc(Cl)c4c(NS(C)(=O)=O)nn(C)c34)c([C@H](Cc3cc(F)cc(F)c3)NC(=O)Cn3ccc(C4CC4)n3)nc2c1 [Example 188, (S)—N-(1-(3-(4-chloro-1-methyl-3-(methylsulfonamido)-1H-indazol-7-yl)-5-fluoro-7-methoxy-4-oxo-3,4-dihydroquinazolin-2-yl)-2-(3,5-difluorophenyl)ethyl)-2-(3-cyclopropyl-1H-pyrazol-1-yl)acetamide] | > 1000 | – | – | – | – |
| Cn1nc(NS(C)(=O)=O)c2c(Cl)ccc(-n3c([C@H](Cc4cc(F)cc(F)c4)NC(=O)Cn4ccc(C5CC5)n4)nc4cc(CS(C)(=O)=O)ccc4c3=O)c21 [Example 205, (S)—N-(1-(3-(4-chloro-1-methyl-3-(methylsulfonamido)-1H-indazol-7-yl)-7-((methylsulfonyl)methyl)-4-oxo-3,4-dihydroquinazolin-2-yl)-2-(3,5-difluorophenyl)ethyl)-2-(3-cyclopropyl-1H-pyrazol-1-yl)acetamide] | > 1000 | – | – | – | – |
| COc1cccc2c(=O)n(-c3ccc(Cl)c4c(NS(C)(=O)=O)nn(C)c34)c([C@H](Cc3cc(F)cc(F)c3)NC(=O)Cn3nc(C(F)F)c4c3C(F)(F)[C@@H]3C[C@H]43)nc12 (single isomer, unassigned) [Example 103] | > 1000 | – | – | – | – |

Source: patent US10954252B1, “Inhibitors of human immunodeficiency virus replication” (ViiV HEALTHCARE UK (NO.5) LIMITED, priority 2017, dated 2021)
